Consider one compound from patent US20180078560A1, “USE OF 4-(4-FLUORO-2-METHOXYPHENYL)-N-{3-[(S-METHYLSULFONIMIDOYL)METHYL]PHENYL}-1,3,5-TRIAZIN-2-AMINE FOR TREATING MULTIPLE MYELOMA” (Bayer Pharma Aktiengesellschaft, priority 2015, published 2018).

One series relates to JJN3. Briefly: Proliferation assay, JJN3 cell line. Type of series: cell-based. The following applies: Homo sapiens, JJN-3, Multiple myeloma, after 72 hours of incubation.
A further series concerns OPM-2. The experiment in a line: Proliferation assay, OPM-2 cell line. Type of series: cell-based. The following applies: Homo sapiens, Multiple myeloma, after 72 hours of incubation.
The test system of series [1] is NCI-H929 multiple myeloma xenograft. Briefly: In vivo efficacy in NCI-H929 multiple myeloma xenograft model. On the set-up: species or system NOD/SCID mice. As to conditions: 25 mg/kg/day p.o. once daily. As to the method: The aim of the present experiments was to assess the in vivo efficacy and tolerability of Compound A′ in monotherapy in the NCI-H929 multiple myeloma xenograft model subcutaneously implanted into NOD/SCID mice.
(§1) In vivo efficacy was determined in female NOD/SCID mice bearing subcutaneous multiple myeloma NCI-H929 xenografts. Compound A′ was assessed at one dose level in monotherapy. Anti-tumour activity and tolerability of the treated group was assessed using the vehicle control group as a reference.
Multiple myeloma tumour fragments, derived from the NCI-H929 cell line, were obtained from xenografts in serial passage in nude mice and placed in PBS containing 10% penicillin/streptomycin. Tumour fragments (one fragment per animal; 3-4 mm edge length) were then subcutaneously implanted in the flank of NOD/SCID recipient mice under isofluorane anaesthesia.
At randomisation, the volume of growing tumours was initially determined. […] The result of the randomisation was documented and maintained with the experimental data Animals not randomised were euthanised. […]
The tumour volumes were determined by two-dimensional measurement with a caliper on the day of randomisation (day 0) and then twice weekly (i.e. on the same days on which mice were weighed). Tumour volumes were calculated according to the formulas: […]
Relative volumes of individual tumours (RTVs) for Day x were calculated by dividing the absolute individual tumour volume on Day x (Tx) by the absolute individual tumour volume of the same tumour on Day 0 (T0) multiplied by 100%:
Anti-tumour activity was evaluated as maximum tumour volume inhibition versus the vehicle control group.
Tumour inhibition for a particular day (T/C in %) was calculated from the ratio of the median RTV values of test versus control groups multiplied by 100.
The minimum (or optimum) T/C% value recorded for a particular test group during an experiment represents the maximum anti-tumour activity for the respective treatment. T/C values were calculated if at least 50% of the randomized animals in the treated group were alive on the day in question. […]

The test system of a further series is EJM. The experiment in a line: Proliferation assay, EJM cell line. Type of series: cell-based. The following applies: Homo sapiens, Multiple myeloma, after 72 hours of incubation.
Series [2] is described as follows: Tolerability (survival and body weight) in xenograft-bearing mice. Type of series: in vivo. As to the method:
as §1
Mortality checks were conducted daily during routine monitoring.
Mice were weighed twice a week. Relative body weights of individual mice in % were calculated by dividing the individual body weight on day X (BWX) by the individual body weight on day 0 (BW0) multiplied by 100 according to the formula: […]
Group median relative body weights were calculated as well, considering only the weights of mice that were alive on the day in question.
The in vivo efficacy and tolerability of BHC's investigational compound Compound A′ was assessed in monotherapy in the NCI-H929 multiple myeloma xenograft model. NCI-H929 tumour fragments, obtained from serial passage in nude mice, were implanted subcutaneously into female NOD/SCID mice. Compound A′ was administered orally at one dose level (25 mg/kg/day) in monotherapy once daily and treatment was started once subcutaneous tumours were established. A vehicle-treated control group was included in each experiment. […] Anti-tumour activity (tumour growth inhibition) and tolerability of treatment group was assessed using the vehicle control group as a reference.

The test system of another series is NCI-H929. Briefly: Proliferation assay, NCI-H929 cell line. Type of series: cell-based. The following applies: Homo sapiens, Multiple myeloma, after 72 hours of incubation.

Each structure is given as a SMILES string. “Also recorded” adds a separate entry of the source. A value given as a limit tells only on which side of the number the result lay.

For orientation: IC50 means the concentration needed to halve the response being measured. As for `COc1cc(F)ccc1-c1ncnc(Nc2cccc(CS(C)(=N)=O)c2)n1` (single isomer, unassigned; (+)) [Compound A′, (+)-4-(4-Fluoro-2-methoxyphenyl)-N-{3-[(S-methylsulfonimidoyl)methyl]phenyl}-1,3,5-triazin-2-amine], the IC50 with JJN3 turned out to be 330 nM; with OPM-2, 600 nM; in the series with EJM, 200 nM; in the series with NCI-H929, 237 nM. Besides, the “NCI-H929 tumour growth vs vehicle control group” value in series [1] (Mann-Whitney-Wilcoxon U-test) is listed as “significantly reduced; also recorded: significantly attenuated”. Further, the “minimum T/C value” in series [1] (NCI-H929 xenograft s.c. in female NOD/SCID mice, ratio of median RTV vs vehicle) was 5.5%. The anti-tumour activity rating entry in series [1] (NCI-H929 xenograft, rating from optimum T/C) was “High anti-tumour activity”. Also, in series [2] (NCI-H929 xenograft-bearing NOD/SCID mice, 25 mg/kg/day p.o. once daily), the “group median BWL (body weight loss)” value was not above 2.7%. Also, the tolerability profile entry in series [2] (multiple myeloma xenograft-bearing mice, 25 mg/kg/day p.o.) is given as “acceptable tolerability profile”.
